Assay results from PMC12195707, “Evaluation of Antitumoral Activity in a 3D Cell Model of a Src Inhibitor Prodrug for Glioblastoma Treatment” (Pharmaceutics, 2025).
Values joined by “and” are separate entries in the source; they are usually repeats but may differ in a detail not shown here. Identical values can stand only once.

How the values were obtained:
[1] = PAMPA assay, gastrointestinal (GI) membrane; format: in vitro ADME; conditions: four hours; for Papp at 4 h: pH 7.4, room temperature, read-out: Apparent permeability Papp; for Membrane retention MR: room temperature
Procedure: After being first dissolved in DMSO, the compounds were diluted 1:1 v/v using phosphate buffer (PBS 10 mM, pH 7.4). […] The gastrointestinal (GI) and blood–brain barrier (BBB) phospholipidic bilayers were mimicked by covering each well of the filter plate with either a 10%w/v CHCl3/dodecane brain polar lipid solution or a 1%w/v L-α-phosphatidylcholine solution (PC) in dodecane. After placing a DMSO/PBS 1:1v/v combination solution in the acceptor plate, the sandwich was gently shaken and incubated at room temperature for four hours. Samples were collected from the upper and bottom plates at the end time point, and the LC-UV/MS method was used for analysis. As previously reported, the apparent permeability (Papp cm/s × 10^−6) was quantified.

[2] = test system: U251 glioblastoma cell line; experiment: 2D cell viability assay (PrestoBlue), U251; format: cell-based; conditions: Homo sapiens, U-251, 72 h, U251 2D culture
Procedure: (§1) The human glioblastoma cell line U87 MG (U87) was originally isolated from a patient with a malignant glioma (ECACC). The human glioblastoma cell line U251 MG (U251) was derived from a patient with a malignant glioblastoma (ECACC). DMEM high-glucose growth medium (Euroclone, Milan, Italy), supplemented with 10% FBS (Euroclone), 200 mM L-glutamine (Euroclone), 100 IU/mL penicillin, and 100 µg/mL streptomycin (Euroclone) comprised the culture medium used for cell propagation at a controlled temperature and atmosphere, at 37 °C, […], and 5% CO2. Cell lines underwent regular testing for mycoplasma using the PCR method and identity verification was performed using DNA profiling.
(§2) For the treatment of 2D cultures, U87 and U251 cell lines were initially seeded at a density of 2.5 × 10^4 cells/mL in a 24 multiwell with a complete DMEM high-glucose growth medium. The viability test was started 24 h after cell plating and performed for 72 h. According to the experimental plan, the tests were performed in the presence of a complete DMEM high-glucose growth medium or, to avoid the serum-dependent degradation of prodrug, in an FBS-free DMEM high-glucose growth medium that was supplemented with 200 mM L-glutamine, 100 IU/mL penicillin, and 100 µg/mL streptomycin. Cell viability in 2D and 3D models was assessed using the cell-permeable resazurin-based solution PrestoBlue (Thermo Fisher, Waltham, MA, USA). After incubating the cells in a 1:10 ratio with the colorimetric reagent for two hours in the dark, the spectrophotometer readings at 570 and 600 nm were utilized as a relative indicator for cell viability.
(§3) Data were imported into Excel or GraphPad Prism software (version 6.01) and elaborated as the mean ± standard deviation (SD) of at least three independent experiments. The calculation of IC50 values with 95% confidence intervals was performed in GraphPad Prism software using a parameter nonlinear fit of the log-dose vs. response elaboration of data. The p value of the log-dose vs. response was calculated with a two-tailed Mann–Whitney test for unpaired data. The statistical significance between two series of measures, including stability and PAMPA (both GI and BBB) experiments, was calculated with the parametric Student t test, considering a significant p value lower than 0.05.

U251 spheroids = experiment: Diameter of U251 spheroids in bioprinted scaffold; format: cell-based, human; conditions: 10 µM, 72 h, FBS-free DMEM
Procedure: A solution of 2% alginate and 8% gelatin (bio-ink) made up the hydrogel utilized for bioprinting. After 15 min of UV light exposure, the powders were dissolved in sterile DPBS in a magnetic stirrer set at 50 °C with laminar flow. After being made, bioink was put in sterile syringes and kept at 4 °C until it was needed. Bioink had been equilibrated at 37 °C prior to the bioprinting process. After that, 2.7 mL of bioink was added to 20 × 10^6 cells that had been resuspended in 300 µL of growth media. Lastly, a disposable cartridge containing a cell/hydrogel suspension was equilibrated in a temperature-controlled printhead for 30 min at 29 °C. The BIO-X bioprinter (Cellink, Gothenburg, Sweden) was used to print in a 12-well plate at a speed of 5 mm/s and a dispensing pressure of 50 kPa, while the temperature was adjusted to 18 °C. Before adding culture media, three-dimensional constructs were crosslinked using CaCl2 for ten minutes and BaCl2 for three minutes. After 8 days, 3D structures, after evaluating cell viability, were treated for 72 h with SI306 and SI306-PD2 at selected concentrations and in different conditions: in complete DMEM high-glucose growth medium and DMEM-high glucose growth medium without FBS (w/o). Fiji ImageJ software (version 2.16.0/1.54p, https://imagej.net/software/fiji/downloads, accessed on 20 May 2025) was used to perform measurements of 3D models’ diameters on images acquired using phase contrast microscopy. A hemocytometer was used to set a scale for normalized measures and to convert real optic distance in pixels. At least five different optical fields were acquired, and the diameter was calculated for at least 100 different cell aggregates in each experimental point.

[3] = Stability/release in cell culture medium DMEM (10% FBS); format: in vitro ADME; conditions: 37 °C; for half-life: bovine, DMEM plus 10% FBS (cell culture medium), read-out: Half-life t1/2 (converted)
[4] = test system: U87 glioblastoma cell line; experiment: 2D cell viability assay (PrestoBlue), U87; format: cell-based; conditions: Homo sapiens, 72 h, U87 2D culture
Procedure: as §1, §2, §3

[5] = Stability/release in fetal bovine serum (FBS); conditions: for Stability (% unmodified compound): FBS, 37 °C; for half-life: bovine, fetal bovine serum (absolute FBS), pH 7.4

Structure (SMILES) | Papp at 4 h [1] [×10⁻⁶ cm/s] | Membrane retention MR [1] [%] | IC50 ([2]; 10% FBS-DMEM) [nM] | IC50 ([2]; FBS-free DMEM (w/o)) [nM] | Mean diameter of U251 spheroids vs. control (U251 spheroids) | Stability (% unmodified compound) ([3]; time 0 h) [%] | Stability (% unmodified compound) ([3]; time 0.083 h) [%] | Stability (% unmodified compound) ([3]; time 0.25 h) [%] | Stability (% unmodified compound) ([3]; time 0.5 h) [%] | Stability (% unmodified compound) ([3]; time 1 h) | Stability (% unmodified compound) ([3]; time 2 h) [%] | Stability (% unmodified compound) ([3]; time 4 h) [%] | Stability (% unmodified compound) ([3]; time 24 h) | half-life [3] [h] | IC50 ([4]; 10% FBS-DMEM) [nM] | IC50 ([4]; FBS-free DMEM (w/o)) [nM] | Stability (% unmodified compound) ([5]; time 0 h) [%] | Stability (% unmodified compound) ([5]; time 0.083 h) [%] | Stability (% unmodified compound) ([5]; time 0.25 h) [%] | Stability (% unmodified compound) ([5]; time 0.5 h) [%] | further results
ClC(Cn1ncc2c(Nc3cccc(Br)c3)nc(SCCN3CCOCC3)nc21)c1ccccc1 (stereo not shown) [SI306, N-(3-bromophenyl)-1-(2-chloro-2-phenylethyl)-6-((2-morpholinoethyl)thio)-1H-pyrazolo[3,4-d]pyrimidin-4-amine] | 5.93 ± 0.38 | 60.09 ± 3.38 | 2620 | 230 | significant difference in the mean diameter of the treated U251 spheroids with respect to the control | 100.11 ± 0.91 | 101.97 ± 2.32 | 103.96 ± 1.68 | 99.17 ± 1.10 | 98.52 ± 3.69% | 98.64 ± 1.79 | 93.56 ± 1.79 | 87.39% and 87.39 ± 0.41 % | > 100 | 3070 | 270 | 100.24 ± 2.48 | 99.67 ± 0.21 | 98.42 ± 1.19 | 98.49 ± 2.18 | Stability (% unmodified compound) ([3]; time 6 h): 92.30 ± 0.84 %; Stability (% unmodified compound) ([5]; time 1 h): 97.91 ± 1.79%; Stability (% unmodified compound) ([5]; time 2 h): 93.95 ± 2.42 %; Stability (% unmodified compound) ([5]; time 4 h): 90.92 ± 2.68 %; Stability (% unmodified compound) ([5]; time 6 h): 90.51 ± 3.24 %; Stability (% unmodified compound) ([5]; time 24 h): 90.02% and 90.02 ± 2.28 %; half-life [5]: > 100 h
O=C(OCCOCCO)N(c1cccc(Br)c1)c1nc(SCCN2CCOCC2)nc2c1cnn2CC(Cl)c1ccccc1 (stereo not shown) [SI306-PD2, 2-(2-Hydroxyethoxy)ethyl (3-Bromophenyl)(1-(2-chloro-2-phenylethyl)-6-((2-morpholinoethyl)thio)-1H-pyrazolo[3,4-d]pyrimidin-4-yl)carbamate] | 18.4 ± 2.32 | 5.26 ± 2.70 | 1290 | 90 | significant difference in the mean diameter of the treated U251 spheroids with respect to the control | 100.02 ± 0.80 | 100.22 ± 0.10 | 103.59 ± 2.97 | 98.01 ± 3.40 | 91.48% and 91.48 ± 0.86% | 85.45 ± 3.20 | 81.41 ± 3.94 | 40.07% and 40.07 ± 1.70% | 18.1 | 1620 | 290 | 100.06 ± 1.13 | 93.64 ± 2.06 | 92.56 ± 3.74 | 89.39 ± 2.87 | Spheroid diameter vs. SI306-treated cells (U251 spheroids): significant reduction in spheroid diameter with respect to SI306-treated cells; Stability (% unmodified compound) ([5]; time 2 h): 79.26 ± 0.34%; Stability (% unmodified compound) ([5]; time 4 h): 64.90 ± 1.21%; Stability (% unmodified compound) ([5]; time 6 h): 56.13 ± 2.72%; half-life [5]: 10.7 h
